IC50 data for twelve compounds are collected here from US20240409585A1, “MACROCYCLIC IMMUNOMODULATORS” (priority 2021, published 2024).

Numbered stars: 1 amine (or outer) side, 2 acyl side, 3 side chain; on linkers, the order of the positions; unused ones are H or OH. Bridge positions count the residues as written; N and C are the ends. Square brackets hold non-standard residues; d marks the D form. Peptide text beside a SMILES is read from it. * marks the point of attachment. Bip(4'-COOH) = N[C@@H](Cc1ccc(-c2ccc(C(=O)O)cc2)cc1)C(=O)O; Bip(4'-NHAc) = CC(=O)Nc1ccc(-c2ccc(C[C@H](N)C(=O)O)cc2)cc1; X32 = N=C(N)NCc1ccc(C[C@H](N[*:1])C(=O)[*:2])cc1; Phe(3-CF3) = N[C@@H](Cc1cccc(C(F)(F)F)c1)C(=O)O; Ala(morpholin-4-yl) = N[C@@H](CN1CCOCC1)C(=O)O; Phe(4-CONH2) = NC(=O)c1ccc(C[C@H](N)C(=O)O)cc1; Phe(4-COOH) = N[C@@H](Cc1ccc(C(=O)O)cc1)C(=O)O; Bip = N[C@@H](Cc1ccc(-c2ccccc2)cc1)C(=O)O; Phe(3-Me) = Cc1cccc(C[C@H](N)C(=O)O)c1; Abu(3S-NH2) = C[C@H](N)[C@H](N)C(=O)O; Glutaryl = O=C(CCCC(=O)[*:2])[*:1]; hArg = N=C(N)NCCCC[C@H](N)C(=O)O; hPhe = N[C@@H](CCc1ccccc1)C(=O)O; Cha = N[C@@H](CC1CCCCC1)C(=O)O; Suc = O=C(CCC(=O)[*:2])[*:1]; Carboxymethyl = O=C(O)C*; NMeA = CN[C@@H](C)C(=O)O; Orn = NCCC[C@H](N)C(=O)O; Dab = NCC[C@H](N)C(=O)O; Dap = NC[C@H](N)C(=O)O

T1 sequence (Q15116 25-288): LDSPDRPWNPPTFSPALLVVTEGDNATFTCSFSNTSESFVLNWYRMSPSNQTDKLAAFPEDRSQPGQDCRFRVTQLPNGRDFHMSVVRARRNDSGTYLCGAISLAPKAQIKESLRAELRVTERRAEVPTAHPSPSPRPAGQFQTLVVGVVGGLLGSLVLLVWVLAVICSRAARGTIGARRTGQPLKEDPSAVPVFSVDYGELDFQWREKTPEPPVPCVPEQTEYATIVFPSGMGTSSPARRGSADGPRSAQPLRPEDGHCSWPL

The first experiment addresses T1, Alexa fluor-647 labeled human PD-L1-Ig binding to Jurkat cell line over-expressing human PD-1 (Homo sapiens, UniProt Q15116).
T1 construct: expressed in transfected cells; host or cells: Jurkat
Briefly: Jurkat-PD-1 Cell Binding High-Content Screening Assay (CBA): Method 3 (Alexa fluor-647 labeled PD-L1-Ig). As to conditions: Jurkat-PD-1 cells, Alexa fluor-647 labeled PD-L1-Ig 177 nM; head μM; read-out: CBA Method 3 μM. Summed up: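 Readout by high-content imaging of PFA-fixed, Hoechst-stained cells after 1 h with 177 nM (final) Alexa fluor-647 PD-L1-Ig. Compound was added first to hPD-1 Jurkat cells in RPMI plus 10% FCS for 2 h at 37 °C.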
For the compound `COc1ccc(C[C@@H]2NC(=O)[C@H](CN3CCOCC3)NC(=O)CSC[C@@H](C(=O)N[C@@H](CCN)C(N)=O)NC(=O)[C@H](CCCN)NC(=O)[C@H](C(C)C)NC(=O)[C@H](CC3CCCCC3)NC(=O)[C@H](CCN)NC(=O)[C@@H](CC(C)C)NC(=O)[C@H](C)N(C)C(=O)[C@H](CCC(N)=O)NC(=O)[C@H](Cc3ccc(-c4ccccc4)cc3)NC(=O)[C@H](Cc3ccc(OCC(=O)O)cc3)NC(=O)[C@H](Cc3cccc(C(F)(F)F)c3)NC(=O)[C@H](CC(=O)O)NC2=O)cc1` [Example 5263] ({CH2CO}-[Ala(morpholin-4-yl)]Y(Me)D[Phe(3-CF3)]Y(Carboxymethyl)[Bip]Q[NMeA][dL][Dab][Cha]V[Orn]C[Dab]-NH2; thioether N-14), the IC50 was 0.18 µM. The same measure, in the same setting: the same measure for `CC(C)C[C@H]1NC(=O)[C@H](C)N(C)C(=O)[C@H](Cc2ccc(C(=O)O)cc2)NC(=O)[C@H](Cc2ccc(-c3ccccc3)cc2)NC(=O)[C@H](CCc2ccccc2)NC(=O)[C@H](Cc2cccc(C(F)(F)F)c2)NC(=O)[C@H](CC(=O)O)NC(=O)[C@H](Cc2ccc(C(=O)O)cc2)NC(=O)[C@H](CN2CCOCC2)NC(=O)CSC[C@@H](C(=O)N[C@@H](CCN)C(N)=O)NC(=O)[C@H](CNC(=O)CCCC(=O)O)NC(=O)[C@H](C(C)C)NC(=O)[C@H](CC2CCCCC2)NC(=O)[C@H](CCN)NC1=O` [Example 5209] ({CH2CO}-[Ala(morpholin-4-yl)][Phe(4-COOH)]D[Phe(3-CF3)][hPhe][Bip][Phe(4-COOH)][NMeA][dL][Dab][Cha]V[Dap](Glutaryl)C[Dab]-NH2; thioether N-14): 0.02 µM; for `CC(C)C[C@H]1NC(=O)[C@H](C)N(C)C(=O)[C@H](Cc2ccc(C(=O)O)cc2)NC(=O)[C@H](Cc2ccc(-c3ccccc3)cc2)NC(=O)[C@H](Cc2ccc(C(=O)O)cc2)NC(=O)[C@H](Cc2cccc(C(F)(F)F)c2)NC(=O)[C@H](CC(=O)N[C@@H](CC(=O)O)C(=O)O)NC(=O)[C@H](Cc2ccc(C(=O)O)cc2)NC(=O)[C@H]([C@H](C)N)NC(=O)CSC[C@@H](C(=O)N[C@@H](CCN)C(N)=O)NC(=O)[C@H](CC(N)=O)NC(=O)[C@H](C(C)C)NC(=O)[C@H](CC2CCCCC2)NC(=O)[C@H](CCN)NC1=O` [Example 5102] ({CH2CO}-[Abu(3S-NH2)][Phe(4-COOH)]D(Asp)[Phe(3-CF3)][Phe(4-COOH)][Bip][Phe(4-COOH)][NMeA][dL][Dab][Cha]VNC[Dab]-NH2; thioether N-14): 0.51 µM; for `Cc1cccc(C[C@@H]2NC(=O)[C@H](CC(=O)O)NC(=O)[C@H](Cc3ccc(OCC(=O)O)cc3)NC(=O)[C@H](Cc3ccc(CNC(=N)N)cc3)NC(=O)CSC[C@@H](C(=O)N[C@@H](CCN)C(N)=O)NC(=O)[C@H](CCCN)NC(=O)[C@H](C(C)C)NC(=O)[C@H](CC3CCCCC3)NC(=O)[C@H](CCN)NC(=O)[C@@H](CC(C)C)NC(=O)[C@H](C)N(C)C(=O)[C@H](CCC(N)=O)NC(=O)[C@H](Cc3ccc(-c4ccccc4)cc3)NC(=O)[C@H](Cc3ccc(C(=O)O)cc3)NC2=O)c1` [Example 5278] ({CH2CO}-[X32]Y(Carboxymethyl)D[Phe(3-Me)][Phe(4-COOH)][Bip]Q[NMeA][dL][Dab][Cha]V[Orn]C[Dab]-NH2; thioether N-14): 0.31 µM. On the same count and under the same terms, the same measure for `CC(C)C[C@H]1NC(=O)[C@H](C)N(C)C(=O)[C@H](CCC(N)=O)NC(=O)[C@H](Cc2ccc(-c3ccccc3)cc2)NC(=O)[C@H](Cc2ccc(-c3ccc(C(=O)O)cc3)cc2)NC(=O)[C@H](Cc2cccc(C(F)(F)F)c2)NC(=O)[C@H](CC(=O)O)NC(=O)[C@H](Cc2ccc(C(=O)O)cc2)NC(=O)[C@H](CC2CCCCC2)NC(=O)CSC[C@@H](C(=O)N[C@@H](CCN)C(N)=O)NC(=O)[C@H](CCCN)NC(=O)[C@H](C(C)C)NC(=O)[C@H](CC2CCCCC2)NC(=O)[C@H](CCN)NC1=O` [Example 5165] ({CH2CO}-[Cha][Phe(4-COOH)]D[Phe(3-CF3)][Bip(4'-COOH)][Bip]Q[NMeA][dL][Dab][Cha]V[Orn]C[Dab]-NH2; thioether N-14): 0.03 µM.

Still in this experiment, the particulars now being: Jurkat-PD-1 cells, Alexa fluor-647 labeled PD-L1-Ig 177 nM; nM; read-out: CBA Method 3.
On to `CC(=O)Nc1ccc(-c2ccc(C[C@@H]3NC(=O)[C@H](Cc4cccc(C(F)(F)F)c4)NC(=O)[C@H](CC(=O)O)NC(=O)[C@H](Cc4ccc(C(N)=O)cc4)NC(=O)[C@H]([C@H](C)N)NC(=O)CSC[C@@H](C(=O)N[C@@H](CCN)C(N)=O)NC(=O)[C@H](CC(N)=O)NC(=O)[C@H](C(C)C)NC(=O)[C@H](CC4CCCCC4)NC(=O)[C@H](CCN)NC(=O)[C@@H](CC(C)C)NC(=O)[C@H](C)N(C)C(=O)[C@H](Cc4ccc(C(N)=O)cc4)NC(=O)[C@H](Cc4ccc(-c5ccccc5)cc4)NC3=O)cc2)cc1` [Example 5110] ({CH2CO}-[Abu(3S-NH2)][Phe(4-CONH2)]D[Phe(3-CF3)][Bip(4'-NHAc)][Bip][Phe(4-CONH2)][NMeA][dL][Dab][Cha]VNC[Dab]-NH2; thioether N-14), for which the IC50 was determined as 0.0088 µM. Still for that read-out and setting: the value for `Cc1cccc(C[C@@H]2NC(=O)[C@H](CC(=O)O)NC(=O)[C@H](Cc3ccc(OCC(=O)O)cc3)NC(=O)[C@H](CCCCNC(=N)N)NC(=O)CSC[C@@H](C(=O)N[C@@H](CCN)C(N)=O)NC(=O)[C@H](CCCN)NC(=O)[C@H](C(C)C)NC(=O)[C@H](CC3CCCCC3)NC(=O)[C@H](CCN)NC(=O)[C@@H](CC(C)C)NC(=O)[C@H](C)N(C)C(=O)[C@H](CCC(N)=O)NC(=O)[C@H](Cc3ccc(-c4ccccc4)cc3)NC(=O)[C@H](Cc3ccc(C(=O)O)cc3)NC2=O)c1` [Example 5184] ({CH2CO}-[hArg]Y(Carboxymethyl)D[Phe(3-Me)][Phe(4-COOH)][Bip]Q[NMeA][dL][Dab][Cha]V[Orn]C[Dab]-NH2; thioether N-14) was 0.0011 µM; that for `Cc1cccc(C[C@@H]2NC(=O)[C@H](CC(=O)O)NC(=O)[C@H](Cc3ccc(-c4ccc(C(=O)O)cc4)cc3)NC(=O)[C@H](CN3CCOCC3)NC(=O)CSC[C@@H](C(=O)N[C@@H](CCN)C(N)=O)NC(=O)[C@H](CCC(=O)O)NC(=O)[C@H](C(C)C)NC(=O)[C@H](CC(C)C)NC(=O)[C@H](CC(N)=O)NC(=O)[C@@H](CC(C)C)NC(=O)[C@H](C)N(C)C(=O)[C@H](C(C)C)NC(=O)[C@H](Cc3ccc(-c4ccccc4)cc3)NC(=O)[C@H](CC(C)C)NC2=O)c1` [Example 5125] ({CH2CO}-[Ala(morpholin-4-yl)][Bip(4'-COOH)]D[Phe(3-Me)]L[Bip]V[NMeA][dL]NLVEC[Dab]-NH2; thioether N-14) was 0.0094 µM; that for `CC(C)C[C@H]1NC(=O)[C@H](C)N(C)C(=O)[C@H](Cc2ccc(C(=O)O)cc2)NC(=O)[C@H](Cc2ccc(-c3ccccc3)cc2)NC(=O)[C@H](CCc2ccccc2)NC(=O)[C@H](Cc2cccc(C(F)(F)F)c2)NC(=O)[C@H](CC(=O)O)NC(=O)[C@H](Cc2ccc(C(=O)O)cc2)NC(=O)[C@H](CN2CCOCC2)NC(=O)CSC[C@@H](C(=O)N[C@@H](CCN)C(N)=O)NC(=O)[C@H](CCC(N)=O)NC(=O)[C@H](C(C)C)NC(=O)[C@H](CC2CCCCC2)NC(=O)[C@H](CCN)NC1=O` [Example 5204] ({CH2CO}-[Ala(morpholin-4-yl)][Phe(4-COOH)]D[Phe(3-CF3)][hPhe][Bip][Phe(4-COOH)][NMeA][dL][Dab][Cha]VQC[Dab]-NH2; thioether N-14) was 0.0065 µM. `CC(=O)Nc1ccc(-c2ccc(C[C@@H]3NC(=O)[C@H](Cc4cccc(C(F)(F)F)c4)NC(=O)[C@H](CC(=O)O)NC(=O)[C@H](Cc4ccc(C(=O)O)cc4)NC(=O)[C@H]([C@H](C)N)NC(=O)CSC[C@@H](C(=O)N[C@@H](CCN)C(N)=O)NC(=O)[C@H](CC(N)=O)NC(=O)[C@H](C(C)C)NC(=O)[C@H](CC4CCCCC4)NC(=O)[C@H](CCN)NC(=O)[C@@H](CC(C)C)NC(=O)[C@H](C)N(C)C(=O)[C@H](Cc4ccc(C(N)=O)cc4)NC(=O)[C@H](Cc4ccc(-c5ccccc5)cc4)NC3=O)cc2)cc1` [Example 5109] ({CH2CO}-[Abu(3S-NH2)][Phe(4-COOH)]D[Phe(3-CF3)][Bip(4'-NHAc)][Bip][Phe(4-CONH2)][NMeA][dL][Dab][Cha]VNC[Dab]-NH2; thioether N-14): the IC50 is 0.0044 µM. On the same count and under the same terms, the value for `CC(C)C[C@H]1NC(=O)[C@H](C)N(C)C(=O)[C@H](CCC(N)=O)NC(=O)[C@H](Cc2ccc(-c3ccccc3)cc2)NC(=O)[C@H](CCc2ccccc2)NC(=O)[C@H](Cc2cccc(C(F)(F)F)c2)NC(=O)[C@H](CC(=O)O)NC(=O)[C@H](Cc2ccc(OCC(=O)O)cc2)NC(=O)[C@H](CN2CCOCC2)NC(=O)CSC[C@@H](C(=O)N[C@@H](CCN)C(N)=O)NC(=O)[C@H](CCCN)NC(=O)[C@H](C(C)C)NC(=O)[C@H](CC2CCCCC2)NC(=O)[C@H](CCN)NC1=O` [Example 5216] ({CH2CO}-[Ala(morpholin-4-yl)]Y(Carboxymethyl)D[Phe(3-CF3)][hPhe][Bip]Q[NMeA][dL][Dab][Cha]V[Orn]C[Dab]-NH2; thioether N-14) was 0.006 µM; that for `CC(C)C[C@H]1NC(=O)[C@H](C)N(C)C(=O)[C@H](Cc2ccc(C(=O)O)cc2)NC(=O)[C@H](Cc2ccc(-c3ccccc3)cc2)NC(=O)[C@H](Cc2ccc(C(=O)O)cc2)NC(=O)[C@H](Cc2cccc(C(F)(F)F)c2)NC(=O)[C@H](CC(=O)O)NC(=O)[C@H](Cc2ccc(C(=O)O)cc2)NC(=O)[C@H](CN2CCOCC2)NC(=O)CSC[C@@H](C(=O)N[C@@H](CCN)C(N)=O)NC(=O)[C@H](CNC(=O)CCC(=O)O)NC(=O)[C@H](C(C)C)NC(=O)[C@H](CC2CCCCC2)NC(=O)[C@H](CCN)NC1=O` [Example 5142] ({CH2CO}-[Ala(morpholin-4-yl)][Phe(4-COOH)]D[Phe(3-CF3)][Phe(4-COOH)][Bip][Phe(4-COOH)][NMeA][dL][Dab][Cha]V[Dap](Suc)C[Dab]-NH2; thioether N-14) was 0.0033 µM.
